The values that follow come from PubChem BioAssay (NCI).

Among the test systems are HT29 colon; SW-620 colon; NCI-H23 lung; A549 NSCLC; SF-295 CNS; KM12 colon; SNB-75 CNS; 786-0 renal; HL-60(TB) leukemia; SNB-19 CNS.
Test in all cases: NCI anticancer screen, dose series, 48 h

The structures appear in SMILES notation.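 In this assay, cells in 96-well plates receive the compound at five concentrations for 48 hours. Endpoints are linearly interpolated between the surrounding concentrations. The concentration for 50% growth inhibition is given as GI50. TGI: total growth inhibition.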

For the compound `COC(=O)Nc1nc2ccc(C3(c4ccc(F)cc4)OCCO3)cc2[nH]1`, the GI50 in the experiment with HT29 colon was 0.317 µM; with SW-620 colon, 0.311 µM; in the experiment on NCI-H23 lung it was 1.14 µM; in the experiment with A549 NSCLC it was 0.417 µM; with SF-295 CNS, 0.272 µM; in the experiment on KM12 colon, 0.352 µM. Besides, the GI50 in the experiment with SNB-75 CNS was 0.262 µM; in the experiment with 786-0 renal it was 0.687 µM; in the experiment on HL-60(TB) leukemia it was 0.242 µM; in the experiment with SNB-19 CNS it was 0.483 µM. Besides, the TGI in the experiment with HT29 colon, with SW-620 colon, in the experiment on NCI-H23 lung, with A549 NSCLC, with SF-295 CNS and with KM12 colon was above 100 µM throughout. Also, the TGI was 98.4 µM in the experiment on SNB-75 CNS, above 100 µM with 786-0 renal, 0.765 µM in the experiment on HL-60(TB) leukemia and above 100 µM in the experiment on SNB-19 CNS.

Turning to `CCCCNC1CCCCC[C@H]1O` (stereo not given in full), the TGI in the experiment on HT29 colon, in the experiment on SW-620 colon, in the experiment on NCI-H23 lung, with A549 NSCLC, with SF-295 CNS and in the experiment with KM12 colon was above 100 µM in each case. Moreover, the TGI in the experiment on SNB-75 CNS, in the experiment with 786-0 renal, in the experiment on HL-60(TB) leukemia and in the experiment with SNB-19 CNS was above 100 µM in each case.

With `Cc1nnc(NS(=O)(=O)c2ccc(N=Nc3cc(N=Nc4ccc(S(=O)(=O)Nc5nnc(C)s5)cc4)c4c(NC(=O)C(Cl)Cl)cccc4c3OC(=O)C(Cl)Cl)cc2)s1` (tested in a mixture with another compound), the TGI in the experiment with HT29 colon is above 100 µM; with SW-620 colon, above 100 µM; with NCI-H23 lung, 49.5 µM; in the experiment on A549 NSCLC, 60.2 µM; with SF-295 CNS, above 100 µM; with KM12 colon, above 100 µM. The TGI was 82 µM in the experiment with SNB-75 CNS, above 100 µM in the experiment with 786-0 renal, 42.4 µM in the experiment with HL-60(TB) leukemia and above 100 µM in the experiment with SNB-19 CNS.

Regarding `CC(=O)O[C@H]1CCC2[C@@H]3CC[C@]4(C)CC(=O)C=C[C@]4(C)C3CC[C@@]21C` (stereo not given in full), the TGI with HT29 colon was 32.8 µM; with SW-620 colon it was 33.8 µM; in the experiment on NCI-H23 lung, 53.8 µM; with A549 NSCLC it was 37.9 µM; in the experiment with SF-295 CNS it was above 100 µM; in the experiment on KM12 colon, 44.3 µM. In addition, the TGI in the experiment with SNB-75 CNS was above 93.1 µM; with 786-0 renal it was above 78.2 µM; in the experiment with HL-60(TB) leukemia it was 66.7 µM; with SNB-19 CNS it was above 100 µM.

Take `CCCCCCCCCCCCCCCC(=O)OCC(C[As](=O)(O)O)OC(=O)CCCCCCCCCCCCCCC` (stereo not given): the TGI with HT29 colon, in the experiment with SW-620 colon, with NCI-H23 lung, with A549 NSCLC, with SF-295 CNS and in the experiment with KM12 colon was above 100 µM in each case. The TGI with SNB-75 CNS is above 96.7 µM; with 786-0 renal it was above 100 µM; with HL-60(TB) leukemia, above 100 µM; in the experiment with SNB-19 CNS it was above 100 µM.

As to `O=C(Nc1n[nH]c2cc(-c3ccccc3)ccc12)C1CC1`, the GI50 in the experiment with HT29 colon was 2.31 µM; in the experiment on SW-620 colon it was 4.77 µM; in the experiment on NCI-H23 lung it was 16.8 µM; in the experiment with A549 NSCLC, 11.6 µM; in the experiment on SF-295 CNS, 9.07 µM; with KM12 colon, 2.11 µM. Further, the GI50 with SNB-75 CNS was above 20.9 µM; in the experiment with 786-0 renal, above 25 µM; with HL-60(TB) leukemia, 6.34 µM; in the experiment with SNB-19 CNS, above 19.8 µM. Also, the TGI with HT29 colon, with SW-620 colon, in the experiment with NCI-H23 lung, in the experiment with A549 NSCLC, in the experiment on SF-295 CNS and with KM12 colon was above 25 µM throughout. Besides, the TGI in the experiment on SNB-75 CNS is above 25 µM; with 786-0 renal, above 25 µM; in the experiment with HL-60(TB) leukemia, above 20.7 µM; with SNB-19 CNS, above 25 µM.

As for `COc1ccc(CN2CC(C)(C)C2=O)c(OC)c1`, the TGI in the experiment with HT29 colon, with SW-620 colon, in the experiment on NCI-H23 lung, in the experiment with A549 NSCLC, in the experiment with SF-295 CNS and in the experiment with KM12 colon was above 100 µM each time. In addition, the TGI in the experiment with SNB-75 CNS, in the experiment with 786-0 renal, with HL-60(TB) leukemia and with SNB-19 CNS was above 100 µM throughout.

`OCC1OC(n2cnc3c2NC=NC[C@H]3O)C(Cl)C1O` (stereo not given in full): the TGI in the experiment on HT29 colon, in the experiment with SW-620 colon, with NCI-H23 lung, in the experiment with A549 NSCLC, in the experiment with SF-295 CNS and in the experiment with KM12 colon was above 100 µM throughout. Further, the TGI with SNB-75 CNS, in the experiment on 786-0 renal, in the experiment on HL-60(TB) leukemia and in the experiment on SNB-19 CNS was above 100 µM each time.

Consider `COCC[C@H]1CCC/C=C/[C@@H]2C[C@H](O)C[C@H]2[C@H](O)/C=C/C(=O)O1`, for which the GI50 with HT29 colon is 0.0351 µM; in the experiment on SW-620 colon, 0.0572 µM; in the experiment with NCI-H23 lung it was 0.0858 µM; with A549 NSCLC it was 0.113 µM; in the experiment on SF-295 CNS, 0.0796 µM; with KM12 colon, 0.034 µM. For the same compound, the GI50 was 0.0423 µM in the experiment with SNB-75 CNS, 0.0234 µM in the experiment with 786-0 renal, 0.273 µM in the experiment on HL-60(TB) leukemia and 0.191 µM in the experiment on SNB-19 CNS. In addition, the TGI in the experiment with HT29 colon was 0.227 µM; in the experiment on SW-620 colon, 0.258 µM; with NCI-H23 lung, 0.858 µM; in the experiment with A549 NSCLC it was above 100 µM; in the experiment on SF-295 CNS it was above 100 µM; in the experiment on KM12 colon, 0.118 µM. In addition, the TGI in the experiment on SNB-75 CNS was above 100 µM; in the experiment on 786-0 renal, 0.054 µM; in the experiment on HL-60(TB) leukemia it was 0.87 µM; with SNB-19 CNS, above 100 µM.

`Cc1cc(N(CCC#N)CCC#N)ccc1/C=C(\NC(=O)/C=C/c1ccccc1)C(N)=O`: the TGI in the experiment with HT29 colon, in the experiment on SW-620 colon, in the experiment on NCI-H23 lung, in the experiment on A549 NSCLC, in the experiment with SF-295 CNS and in the experiment with KM12 colon was above 100 µM throughout. Also, the TGI in the experiment on SNB-75 CNS, with 786-0 renal, in the experiment on HL-60(TB) leukemia and in the experiment on SNB-19 CNS was above 100 µM in each case.
